Measured values as given in PubChem BioAssay AID2060494 (Molecular Pharmacology Branch, DTP, NCI, 2025).

Tested on: 435261-313-R-J1-PDC complex spheroid viability
Test: Anticancer human tumor 435261-313-R-J1-PDC patient-derived colon adenocarcinoma cell line growth inhibition [GQUAD]
Settings: for IC50: curve of first compound; for viability, T/C: stronger effect = lower value
Summary of the method: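 Tumor cells were grown as complex spheroids with HUVEC endothelial cells and mesenchymal stem cells as stroma. G-quadruplex stabilizers were combined with targeted agents over half-log dilutions from near the clinical Cmax, or from 10 microM.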

[1] = second compound 0.0316 µM, first compound 0.000999 µM
[2] = second compound 0.0316 µM, first compound 0.00316 µM
[3] = second compound 0.0316 µM, first compound 0.00999 µM
[4] = second compound 0.0316 µM, first compound 0.0316 µM
[5] = second compound 0.0316 µM, first compound 0.0999 µM
[6] = second compound 0.0316 µM, first compound 0.316 µM
[7] = second compound 0.1 µM, first compound 0.000999 µM
[8] = second compound 0.1 µM, first compound 0.00316 µM
[9] = second compound 0.1 µM, first compound 0.00999 µM
[10] = second compound 0.1 µM, first compound 0.0316 µM
[11] = second compound 0.1 µM, first compound 0.0999 µM
[12] = second compound 0.1 µM, first compound 0.316 µM
[13] = second compound 0.316 µM, first compound 0.000999 µM
[14] = second compound 0.316 µM, first compound 0.00316 µM
[15] = second compound 0.316 µM, first compound 0.00999 µM
[16] = second compound 0.316 µM, first compound 0.0316 µM
[17] = second compound 0.316 µM, first compound 0.0999 µM
[18] = second compound 0.316 µM, first compound 0.316 µM
[19] = second compound 1 µM, first compound 0.000999 µM
[20] = second compound 1 µM, first compound 0.00316 µM
[21] = second compound 1 µM, first compound 0.00999 µM
[22] = second compound 1 µM, first compound 0.0316 µM
[23] = second compound 1 µM, first compound 0.0999 µM
[24] = second compound 1 µM, first compound 0.316 µM
[25] = second compound 3.16 µM, first compound 0.000999 µM
[26] = second compound 3.16 µM, first compound 0.00316 µM
[27] = second compound 3.16 µM, first compound 0.00999 µM
[28] = second compound 3.16 µM, first compound 0.0316 µM
[29] = second compound 3.16 µM, first compound 0.0999 µM
[30] = second compound 3.16 µM, first compound 0.316 µM
[31] = second compound 10 µM, first compound 0.000999 µM
[32] = second compound 10 µM, first compound 0.00316 µM
[33] = second compound 10 µM, first compound 0.00999 µM
[34] = second compound 10 µM, first compound 0.0316 µM
[35] = second compound 10 µM, first compound 0.0999 µM
[36] = second compound 10 µM, first compound 0.316 µM
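Further: spheroids exposed to the agents for seven days before readout.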
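Wherever viability, T/C is given: percent of vehicle control viability with DMSO wells as 100%.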

## CC[C@@]1(O)C(=O)OCc2c1cc1n(c2=O)Cc2cc3c(CN(C)C)c(O)ccc3nc2-1 + CN(C)c1ccc(Nc2c3ccc(NC(=O)CCN4CCCC4)cc3nc3cc(NC(=O)CCN4CCCC4)ccc23)cc1
Second compound 0.0316 µM
  IC50: > 316 nM
Second compound 0.1 µM
  IC50: > 316 nM
Second compound 0.316 µM
  IC50: > 316 nM
Second compound 1 µM
  IC50: > 316 nM
Second compound 3.16 µM
  IC50: 72.5 nM
Second compound 10 µM
  IC50: < 0.999 nM
[1]
  viability, T/C: 110%
[2]
  viability, T/C: 96.6%
[3]
  viability, T/C: 116%
[4]
  viability, T/C: 87.2%
[5]
  viability, T/C: 67.5%
[6]
  viability, T/C: 88.7%
[7]
  viability, T/C: 119%
[8]
  viability, T/C: 111%
[9]
  viability, T/C: 101%
[10]
  viability, T/C: 84.6%
[11]
  viability, T/C: 76.1%
[12]
  viability, T/C: 77.2%
[13]
  viability, T/C: 108%
[14]
  viability, T/C: 99.6%
[15]
  viability, T/C: 87.5%
[16]
  viability, T/C: 64.2%
[17]
  viability, T/C: 73.7%
[18]
  viability, T/C: 74.2%
[19]
  viability, T/C: 88.4%
[20]
  viability, T/C: 99.3%
[21]
  viability, T/C: 87.8%
[22]
  viability, T/C: 81.5%
[23]
  viability, T/C: 82.3%
[24]
  viability, T/C: 84.1%
[25]
  viability, T/C: 75.2%
[26]
  viability, T/C: 62.8%
[27]
  viability, T/C: 78.6%
[28]
  viability, T/C: 63.4%
[29]
  viability, T/C: 45.3%
[30]
  viability, T/C: 44.3%
[31]
  viability, T/C: 39.9%
[32]
  viability, T/C: 40.5%
[33]
  viability, T/C: 33.6%
[34]
  viability, T/C: 36.5%
[35]
  viability, T/C: 29.8%
[36]
  viability, T/C: 22%

## CC[C@@]1(O)C(=O)OCc2c1cc1n(c2=O)Cc2cc3c(CN(C)C)c(O)ccc3nc2-1 + Cc1cnc(CNC(=O)c2c(=O)c3ccc(N4CCCN(C)CC4)nc3n3c2sc2ccccc23)cn1
Second compound 0.0316 µM
  IC50: > 316 nM
Second compound 0.1 µM
  IC50: > 316 nM
Second compound 0.316 µM
  IC50: 113 nM
Second compound 1 µM
  IC50: < 0.999 nM
Second compound 3.16 µM
  IC50: < 0.999 nM
Second compound 10 µM
  IC50: < 0.999 nM
[1]
  viability, T/C: 66.6%
[2]
  viability, T/C: 63%
[3]
  viability, T/C: 73%
[4]
  viability, T/C: 53%
[5]
  viability, T/C: 60.6%
[6]
  viability, T/C: 72.1%
[7]
  viability, T/C: 57.3%
[8]
  viability, T/C: 69%
[9]
  viability, T/C: 58.7%
[10]
  viability, T/C: 50.9%
[11]
  viability, T/C: 63.2%
[12]
  viability, T/C: 53.4%
[13]
  viability, T/C: 53.1%
[14]
  viability, T/C: 59.2%
[15]
  viability, T/C: 50.5%
[16]
  viability, T/C: 55.8%
[17]
  viability, T/C: 46.2%
[18]
  viability, T/C: 49.3%
[19]
  viability, T/C: 31.9%
[20]
  viability, T/C: 48.8%
[21]
  viability, T/C: 35.2%
[22]
  viability, T/C: 43.4%
[23]
  viability, T/C: 47.6%
[24]
  viability, T/C: 34.1%
[25]
  viability, T/C: 16.9%
[26]
  viability, T/C: 20.2%
[27]
  viability, T/C: 21.8%
[28]
  viability, T/C: 16%
[29]
  viability, T/C: 12.1%
[30]
  viability, T/C: 8.56%
[31]
  viability, T/C: 0.19%
[32]
  viability, T/C: 0.19%
[33]
  viability, T/C: 0.22%
[34]
  viability, T/C: 0.23%
[35]
  viability, T/C: 0.23%
[36]
  viability, T/C: 0.22%

## CCc1c2c(nc3ccc(O)cc13)-c1cc3c(c(=O)n1C2)COC(=O)[C@]3(O)CC + CN(C)c1ccc(Nc2c3ccc(NC(=O)CCN4CCCC4)cc3nc3cc(NC(=O)CCN4CCCC4)ccc23)cc1
Second compound 0.0316 µM
  IC50: > 316 nM
Second compound 0.1 µM
  IC50: 240 nM
Second compound 0.316 µM
  IC50: 94.9 nM
Second compound 1 µM
  IC50: 104 nM
Second compound 3.16 µM
  IC50: 43.7 nM
Second compound 10 µM
  IC50: < 0.999 nM
[1]
  viability, T/C: 111%
[2]
  viability, T/C: 103%
[3]
  viability, T/C: 73.4%
[4]
  viability, T/C: 69.2%
[5]
  viability, T/C: 65.1%
[6]
  viability, T/C: 48.6%
[7]
  viability, T/C: 86.2%
[8]
  viability, T/C: 91.2%
[9]
  viability, T/C: 72.3%
[10]
  viability, T/C: 74.5%
[11]
  viability, T/C: 72.4%
[12]
  viability, T/C: 42.3%
[13]
  viability, T/C: 76.4%
[14]
  viability, T/C: 77.1%
[15]
  viability, T/C: 66.7%
[16]
  viability, T/C: 78.8%
[17]
  viability, T/C: 48.9%
[18]
  viability, T/C: 45.1%
[19]
  viability, T/C: 62.2%
[20]
  viability, T/C: 81.2%
[21]
  viability, T/C: 65.2%
[22]
  viability, T/C: 70.9%
[23]
  viability, T/C: 50.4%
[24]
  viability, T/C: 39.3%
[25]
  viability, T/C: 50.2%
[26]
  viability, T/C: 57%
[27]
  viability, T/C: 56.8%
[28]
  viability, T/C: 56.2%
[29]
  viability, T/C: 37.1%
[30]
  viability, T/C: 22.2%
[31]
  viability, T/C: 34.9%
[32]
  viability, T/C: 30.8%
[33]
  viability, T/C: 29.8%
[34]
  viability, T/C: 27.1%
[35]
  viability, T/C: 18.6%
[36]
  viability, T/C: 13.6%
